Results published in patent publication US20100168228A1, “NOVEL CHEMOTHERAPEUTIC AGENTS AGAINST INFLAMMATION AND CANCER” (RELIANCE LIFE SCIENCES PVT. LTD., priority 2006, published 2010).

Tested on: MCF-7
Assay: Apoptosis by PARP cleavage (FACS), MCF-7
Format: cell-based, human
Conditions: MCF-7, 100 nM, 24 h
Description: FIG. 19: Effect of compound 27 on the apoptosis in cells with different p53 status. Extent of apoptosis in different cells was measured by staining the cells for PARP cleavage followed by FACS analysis. Cells were treated with 100 nM of the compound for 24 h and the level of apoptosis was seen. Percentage apoptotic populations are represented as the M2 gated population.
PARP Cleavage Assay using Flow Cytometry: Extent of PARP cleavage is determined using polyclonal antibody specifically recognizing the 85 kDa fragment of cleaved PARP (NSB 699 Novus Biologicals) and can be used as a marker for detecting apoptotic cells. Treated cells were fixed with 70% chilled ethanol and permeabilized for 30 min at RT (PBS+0.5% BSA+0.02% NaN3+0.5% saponin) and stained with anti PARP-FITC (10 μl/10^6 cells) for one hour at RT. Cells were washed twice with wash buffer (PBS+1% heat inactivated FBS) and analysed using FACS.

Compound: COc1cc([C@@H]2Oc3c(OC)cc(/C=C/C(=O)O)cc3[C@H]2C(=O)O)ccc1O [compound 27, 5-[(E)-2-carboxyvinyl]-2β-(4-hydroxy-3-methoxyphenyl)-7-methoxy-2,3-dihydro-1-benzofuran-3α-carboxylic acid]
- level of apoptosis (PARP cleavage): comparable to that of Jurkat cell line
